One compound from US12612386B2, “Heteroaryl-triazole compounds as pesticides” (Bayer Aktiengesellschaft, priority 2020, dated 2026) can be followed below.

The term mortality denotes the share of the test organisms that died.

Type in all cases: in vivo
Test [1] deals with adult mosquitoes Aedes aegypti strain MONHEIM. Briefly: Aedes aegypti test (AEDSAE surface treatment & contact assay). The note with it: 24 hours after contact, read-out: efficacy (mortality). In a few lines:
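Compound in acetone containing 2000 ppm rapeseed oil methyl ester applied to a glazed tile and dried; adult mosquitoes exposed on the treated surface for 30 minutes. Percent mortality scored 24 hours after contact (100% = all dead, 0% = none dead).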

Test [2] relates to adult brown dog ticks (Rhipicephalus sanguineus). Briefly: Rhipicephalus sanguineus in-vitro contact test, adult brown dog ticks. Conditions: 48 h, read-out: efficacy (ticks dead or moribund). In a few lines:
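Read-out: % efficacy as dead or moribund ticks, judged 48 h after exposure by failure to climb away from a 45-50° C heating plate within 5 min. Tubes were coated with acetone solution (900 ppm = 5 μg/cm^2 surface dose) and held 5-10 adults each at room temperature.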

The subject of test [3] is adult engorged female ticks (Rhipicephalus microplus). The experiment in a line: Rhipicephalus (Boophilus) microplus injection test. Conditions: 4 μg/animal, egg deposition after 7 days. Here is the method:
Rhipicephalus (Boophilus) Microplus—Injection Test
(§1) Solvent: dimethyl sulfoxide
To produce a suitable preparation of active compound, 10 mg of active compound are dissolved in 0.5 mL solvent, and the concentrate is diluted with solvent to the desired concentration.
Five adult engorged female ticks (Rhipicephalus microplus) are injected with 1 μL compound solution into the abdomen. The ticks are transferred into replica plates and incubated in a climate chamber.
After 7 days egg deposition of fertile eggs is monitored. Eggs where fertility is not visible are stored in a climate chamber till hatching after about 42 days. An efficacy of 100% means all eggs are infertile; 0% means all eggs are fertile.

For test [4], the system named is larvae of the banded cucumber beetle (Diabrotica balteata). Briefly: Diabrotica balteata spray test. The note with it: 168 h, 100 g/ha (=32 μg/well), after 7 days, read-out: efficacy (seedling growth). In a few lines:
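Efficacy is seedling survival after 7 days, where 0% means no seedlings grew and 100% means growth equal to untreated, uninfested controls. Wheat seedlings, germinated on agar for 1 day, were sprayed with the aqueous emulsifier dilution (acetone/DMF solvent) and then exposed to 10–20 banded cucumber beetle larvae.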

Test [5] concerns adult unfed cat fleas (Ctenocephalides felis). Briefly: Ctenocephalides felis oral test. Conditions: 48 h. Here is the method:
Ctenocephalides felis—Oral Test
as §1
To produce a suitable preparation of active compound, 10 mg of active compound are dissolved in 0.5 mL solvent, and the concentrate is diluted with citrated cattle blood to the desired concentration.
Approximately 20 adult unfed cat fleas (Ctenocephalides felis) are placed in a flea chamber whose top and bottom is covered with gauze. A chamber whose bottom is sealed with parafilm, is filled with the blood-compound solution and placed on top of the flea chamber, so that the fleas can suck the blood. The blood chamber is heated to 37° C. whereas the flea chamber is kept at room temperature.
After 2 days mortality in % is determined. 100% means all the fleas have been killed; 0% means none of the fleas have been killed.

The test system of test [6] is green peach aphid (Myzus persicae). The experiment in a line: Myzus persicae spray test (MYZUPE). The note with it: 120 h, 100 g/ha, after 5 days. In outline: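 Percent aphid kill, with 0% meaning none killed, was read 5 days after spraying. The preparation (acetone–DMF solvent, water with 1000 ppm emulsifier) was applied to Brassica pekinensis leaf disks carrying mixed-instar green peach aphids.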

In test [7] the test system is adult flies Musca domestica strain WHO-N. The experiment in a line: Musca domestica test (MUSCDO surface treatment & contact assay). Conditions: surface concentration 20 mg/m^2, 30 min exposure, 24 hours after contact, read-out: efficacy (mortality). Here is the method:
Musca domestica Test (MUSCDO Surface Treatment & Contact Assay)
Solvent: Aceton+2000 ppm rapeseed oil methyl ester (RME)
This solution is pipetted onto a glazed tile and after evaporation of the acetone, adult flies of the species Musca domestica strain WHO-N are placed onto the dried surface. The exposure time is 30 minutes. Mortality in percent (%) is determined 24 hours after contact of the insects to the treated surface. 100% mortality means that all tested insects are dead, whereas 0% means that no insect died.

Test [8] relates to cattle tick larvae (Rhipicephalus microplus), strain Parkhurst, resistant against synthetic pyrethroids. The experiment in a line: Rhipicephalus (Boophilus) microplus in-vitro contact test, larval cattle tick. The note with it: 5 μg/cm^2 (=500 g/ha), after 48 hours. In a few lines:
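Larvae (20–50 per tube) were exposed for 48 h at 27 °C and 85% relative humidity to dried acetone residues lining glass tubes, where 900 ppm corresponds to 5 μg/cm^2. Loss of negative geotaxis defined dead or moribund larvae, expressed as percent efficacy.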

Take `C[C@H](NC(=O)c1cc(Br)cc(OC(F)(F)F)c1)c1ncnn1-c1cc(C#N)ncn1` [I-1, 3-bromo-N-{(1S)-1-[1-(6-cyanopyrimidin-4-yl)-1H-1,2,4-triazol-5-yl]ethyl}-5-(trifluoromethoxy)benzamide]: in test [1] (surface concentration 4 mg/m^2, 30 min exposure), the mortality at 4 mg/m2 is 80 to 100%. Further, the mortality at 20 mg/m2 in test [1] (surface concentration 20 mg/m^2, 30 min exposure) lay in the range of 80 to 100%; in test [7], 80 to 100%. For the same compound, in test [2], the pest or weed control at 5 µg/cm2, 500 g/ha was determined as 100%. Also, in test [3], the “efficacy (infertile eggs)” value was 100%. The pest or weed control at 32 µg/disc, 100 g/ha in test [4] came to 80%. This compound also registered a mortality at 100 ppm in test [5] of 100%. This compound gave a mortality at 100 g/ha in test [6] of 90%. In addition, the “efficacy (larvae dead or moribund)” value in test [8] amounted to 100%.
